The values that follow are results of earlier work, collected in patent US20190008973A1, “INTRALIPID-IODINE FOR IMAGING” (priority 2017, published 2019).

Entries after “also recorded” stand apart in the source; their conditions may differ. Where two headings read alike, the source gives them in different places.

In one series the test system is hippocampus. Particulars: cited from earlier work.
Series [1] deals with N43 hypothalamic neuronal cells. To be noted: cited from earlier work.
A further series relates to postoperative delirium. To be noted: postoperative analgesia; cited from earlier work.
Series [2] deals with cocaine- and cocaethylene-induced cardiac depression. Particulars: 0.25% lipid emulsion or SBE-β-CD; cited from earlier work.
The test system of series [3] is spinal cord ischemia and reperfusion. Particulars: intrathecal, cited from earlier work.
The target of series [4] is T1, ATPase of F1 particles from bovine heart mitochondria (Bos taurus, UniProt P00829+P19483).
T1 construct: F1 particles isolated from bovine heart mitochondria; from tissue; host or cells: bovine heart mitochondria
Particulars: read-out: concentration required for 50% inhibition of ATPase activity; cited from earlier work.

The target of the next series is T2, mitochondrial ATPase (Homo sapiens, UniProt P06576+P25705).
T2 construct: mitochondrial ATPase prepared by the chloroform extraction method; from tissue; host or cells: mitochondria
To be noted: reciprocal plots; cited from earlier work.

For series [5], the system named is total spinal anesthesia. To be noted: in vivo; cited from earlier work.
Series [6] has as its system total spinal anesthesia. To be noted: in vivo; cited from earlier work. The source holds these as a separate data set.
The test system of another series is bupivacaine mortality. To be noted: cited from earlier work.
Series [7] has as its system bupivacaine-induced asystole. Particulars: cited from earlier work.
Series [8] deals with brachial plexus. Particulars: in vivo; cited from earlier work.
Series [9] relates to bupivacaine cardiotoxicity. The arrangement: AUC of total bupivacaine, mean (standard deviation) / AUC of the lipid-un-entrapped bupivacaine portion: concentration or dose not given beside the values. Particulars: cited from earlier work.
In another series the test system is spinal anesthesia. To be noted: cited from earlier work.
For series [10], the system named is brachial plexus. To be noted: in vivo; cited from earlier work. The source holds these as a separate data set.
Series [11] deals with brachial plexus. Particulars: 30 ml, cited from earlier work.
For series [12] the following is noted: plasma-Intralipid mixture, n=3; cited from earlier work.
The subject of series [13] is brachial plexus. To be noted: in vivo; cited from earlier work. This is another data set of the same source.
A further series concerns axillary plexus. Particulars: in vivo; cited from earlier work.
Series [14] relates to brachial plexus. To be noted: in vivo; cited from earlier work. The source holds these as a separate data set.
Series [15] relates to levobupivacaine myocardial toxicity. To be noted: pig, in vivo; cited from earlier work.
The next series has as its system spinal anaesthesia. To be noted: spinal with 40 mg CP 1%; outpatient knee arthroscopy; versus general anaesthesia 142 min, P=0.0047; cited from earlier work.
Series [16] relates to hemodynamic compromise owing to bupivacaine intoxication. Particulars: epinephrine 3 μg/kg or Intralipid 20% 2 ml/kg; cited from earlier work.
The subject of series [17] is cardiac arrest caused by bupivacaine intoxication. Particulars: epinephrine 10 μg/kg, Intralipid 20% 4 ml/kg, vasopressin 2 IU; cited from earlier work.
Series [18] has as its system brachial plexus. To be noted: 150 μg clonidine or 200 μg epinephrine with 0.25% bupivacaine; cited from earlier work.
For series [19], the system named is ischemia/reperfusion injury. Particulars: cited from earlier work.
In series [20] the test system is ischemia-reperfusion (IR) injury. To be noted: sham-operated hearts; cited from earlier work.
The subject of another series is clomipramine toxicity. To be noted: 8 mL/kg 20% Intralipid or 2 mL/kg 8.4% sodium bicarbonate, n=4; cited from earlier work.
Series [21] deals with I/R injury in late pregnancy. To be noted: rat, in vivo; cited from earlier work.
Series [22] has as its system cardiac and regional blood flow. Particulars: propofol 4 mg/kg then 0.6 mg/kg/min; Intralipid 0.25 ml/kg then 0.06 ml/kg/min; cited from earlier work.
Series [23] concerns propofol-mediated hypotension. Particulars: cited from earlier work.
For the next series, the system named is oxygen desaturation. To be noted: in vivo; cited from earlier work.
For another series, the system named is drug overdose. To be noted: after lipid emulsion; cited from earlier work.

For `CCCCCC(O)C=CC=CCCCCCCCC(=O)O` (stereo not shown) [13-hydroxyoctadecadienoic acid], in the series with hippocampus, the “increase of somatic paired-pulse facilitation” value is on record as 80%.
With `CCCCC/C=C\C/C=C\CCCCCCCC(=O)O` [linoleic acid], the palmitic acid-induced inflammation entry in series [1] is reported as “reduces palmitic acid-induced inflammation”.
For the compound `CCOC(=O)C1(c2ccccc2)CCN(C)CC1` [meperidine], the delirium incidence result with postoperative delirium is reported as “significantly higher”.
With “sulfobutylether-β-cyclodextrin [SBE-β-CD]”, in series [2], the “cardiac depression in Langendorff hearts” value is listed as “mild cardio depressant effect; also recorded: mild cardiodepressant effect”.
Turning to `CCCCNc1ccc(C(=O)OCCN(C)C)cc1` [tetracaine], the neurologically normal animals in series [3] (aortic occlusion 25 minutes) is 100%; in series [3] (aortic occlusion 30 minutes) it was 86%. Further, the IC50 in series [4] was 1100 µM. Further, the kind of inhibition result on mitochondrial ATPase is on record as “non-competitive”.
For `CCCCN1CCCCC1C(=O)Nc1c(C)cccc1C` (stereo not shown) [bupivacaine], the “mean duration of action” value with total spinal anesthesia [5] is 1.511 to 3 h. Moreover, in the series with total spinal anesthesia [6], the “further time to consciousness” value was 65 min and the “time to spontaneous respiration” value is 120 min. Further, in the series with bupivacaine mortality (resuscitation with 30% Intralipid), the “dose of bupivacaine required to cause death in 50% of animals” value is reported as 18.5 mg/kg. Besides, the “dose of bupivacaine required to cause death in 50% of animals” value with bupivacaine mortality (resuscitation with saline) is on record as 12.5 mg/kg. Also, in series [7] (30% Intralipid), the “concentration of bupivacaine in plasma, mean+/−SE” value is recorded as 212+/−45 micrograms per millilitre. The “median dose of bupivacaine producing asystole” value in series [7] (after saline pretreatment) is recorded as 17.7 milligrams per kilogram. Besides, in [7] (saline), the “concentration of bupivacaine in plasma, mean+/−SE” value is recorded as 93.3+/−7.6 micrograms per millilitre. The “muscle relaxation judged as excellent” value in the series with brachial plexus [8] was 30/49. For the same compound, in series [9] (after Intralipid), the “AUC of the lipid-un-entrapped bupivacaine portion” value is 97.0(14.5) mg·min/L; the “AUC of total bupivacaine, mean (standard deviation)” value is 105.2(13.6) mg·min/L; the “un-entrapped AUC lower than total bupivacaine” value is given as 8%. Besides, in series [9] (after Ringer's acetate), the “AUC of total bupivacaine, mean (standard deviation)” value was 88.1(7.1) mg·min/L. For the same compound, the “Duration of procedures it is appropriate for” value in the series with spinal anesthesia (long acting spinal anesthetic) was 2 to 2.5 h. Besides, the Onset in the series with spinal anesthesia (spinal anesthetic, longer with isobaric forms) was 5 to 10 min. Moreover, in the series with brachial plexus [10], the patients requiring supplementation is 9 of the 22. Moreover, in the series on brachial plexus [11], the “duration of motor block” value is 12.94 h, the “duration of sensory block” value was 11.58 h, the “onset of motor block” value is 21.45 ± 4.45 min and the “onset of sensory block” value is 16.85 ± 6.67 min. Besides, the “mean lipid:aqueous ratio of concentrations” value in series [12] was 11.9+/−1.77.
As to `CCCN1CCCC[C@H]1C(=O)Nc1c(C)cccc1C` [ropivacaine], in the series with brachial plexus [13], the “duration of motor blocks” value is given as 12±5 and the “duration of sensorial analgesia” value is listed as 13.4±6. The “mean time of block offset” value in the series on axillary plexus was 13.5 h. Moreover, in the series on brachial plexus [8], the “muscle relaxation judged as excellent” value is 35/49. Further, the patients requiring supplementation with brachial plexus [10] is listed as 8 of the 22. The “need for rescue analgesics” value with brachial plexus [14] was 65%. Besides, in the series on brachial plexus [11] (listed as 0.5% ropivacaine), the “duration of motor block” value is 8.29 h, the “duration of sensory block” value was 9.02 h, the “onset of motor block” value was 22.23 ± 4.05 min and the “onset of sensory block” value was 17.79 ± 5.03 min. Further, in the series with brachial plexus [11] (listed as 0.75% ropivacaine), the “duration of motor block” value is 7.89 h, the “duration of sensory block” value was 8.87 h, the “onset of motor block” value is 22.33 ± 5.17 min and the “onset of sensory block” value is 18.48 ± 6.14 min.
As to `CCCCN1CCCC[C@H]1C(=O)Nc1c(C)cccc1C` [levobupivacaine], in series [15], the “haemodynamic effects of IV injection” value was “induced sinus bradycardia and reduced dMAP and LV dP/dtmax”. The “need for rescue analgesics” value with brachial plexus [14] is listed as 55%.
As to `CCN(CC)CCOC(=O)c1ccc(N)cc1Cl` [CP 1%, Chloroprocaine], the “Time to reaching discharge criteria” value with spinal anaesthesia is recorded as 117 min.
Take `CNC[C@H](O)c1ccc(O)c(O)c1` [epinephrine]: the survival is listed as 100% in series [16] and 71% in series [17]. The duration of block with brachial plexus [18] is 728.3 ± 35.8 min.
As to `COc1cccc(-c2cc(=O)c3ccccc3o2)c1N` [PD98059], the “effect of inhibitor on Intralipid-induced cardioprotection” value in [19] is “only partially”. The “effect of inhibitor on infarct-sparing effect of ILP” value in [20] is given as “only partially”.
For the compound `O=C([O-])O.[Na+]` [bicarbonate, sodium bicarbonate], the “circulation in second phase (severe toxicity)” value in the series on clomipramine toxicity is listed as “developed pulseless electrical activity”.
On to `O=[N+]([O-])c1ccc2c(c1)S(=O)(=O)C=C2` [Stattic], for which the “effect of inhibitor on ITLD-induced cardioprotection” value in [21] was “fully abolished”.
`CC(C)c1cccc(C(C)C)c1O` [Propofol, propofol]: the “cardiac and regional hemodynamic changes” value in series [22] is “increases in heart rate, coronary and carotid blood flows, and decreases in systemic vascular resistance and dP/dt”. Also, the “drop in MAP” value in series [23] (10 mg/kg IV) is given as 55+/−2%. For the same compound, in series [23] (under chlorisondamine and phenylephrine), the “lowering of MAP” value is on record as 12+/−4%. Moreover, the “odds ratio for oxygen desaturation” value in the series with oxygen desaturation was 5.22 (95% CI 1.78-15.35).
As for `Cn1c(=O)c2c(ncn2C)n(C)c1=O` [caffeine], the plasma caffeine level with drug overdose was above 120 mg/L.
